Measured values from patent publication US8110365B2, “Compositions and methods for detecting and treating renal injury and inflammation” (Rhode Island Hospital, priority 2006, dated 2012).
Entries after “also recorded” stand apart in the source; their conditions may differ.

Key:
GSK3b [1] = target: T1, GSK3b (Homo sapiens, UniProt P49841); assay: Inhibitory phosphorylation of GSK3b in HUVEC (immunoblot); assay type: cell-based; set-up: endogenous in cells; conditions: LiCl 20 mM, HGF 100 ng/ml
[2] = tested on: phosphatidylinositol 3-kinase (PI3K)-Akt; assay: PI3K-Akt activation in HUVEC; assay type: cell-based, human
GSK3b [3] = target: T1, GSK3b; assay: Inhibitory phosphorylation of GSK3b in HKC cells (immunoblot); assay type: cell-based; set-up: endogenous in cells; host or cells: HKC-8
Procedure: (§1) Human proximal TEC (HKC-8) (courtesy of Dr. L. Racusen of John Hopkins University, Baltimore, Md.) were maintained in Dulbecco's modified Eagle's medium (DMEM)/F12 supplemented with 5% fetal bovine serum (FBS). Cells were plated at approximately 70% confluence in the media containing 5% FBS for 24 h and then underwent serum starvation for another 24 h. Human recombinant HGF and human recombinant TNF-α (R&D systems, Minneapolis, Minn.) were added to the culture with fresh serum-free medium at a final concentration of 20 ng/ml and 2 ng/ml respectively, or otherwise as indicated. Cell viability was assessed by Trypan blue exclusion. At different time points, cells and conditioned media were harvested for further investigation.
(§2) After different treatments, HKC cells were washed with PBS and lysed with RIPA buffer supplemented with protease inhibitors [1% Nonidet P-40, 0.1% SDS, 100 ug/ml phenylmethysulfonyl fluoride (PMSF), 0.5% sodium deoxycholate, ImM sodium orthovanadate, 2 ug/ml aprotin, 2 ug/ml leupeptin, 5mM EDTA in PBS]. Protein concentration was determined by using a bicinchoninic acid protein assay kit (Sigma). All samples with equal amounts of total protein (50 ug/ml) were fractionated by 7.5˜15% SDS-polyacrylamide gels under reducing condition and analyzed by western immunoblot as described previously (30). The antibodies against p-GSK3b, p-NFkB p65, p-IkBa were purchased from Cell Signaling Technology (Beverly, Mass.) and those for GSK3b, hemagglutin were from Santa Cruz Biotechnology (Santa Cruz, Calif.).

endothelial cells = assay: Monocyte adhesion to TNF-α-activated endothelial monolayers; assay type: cell-based, human
NF-κB = assay: Gel shift assay of HKC nuclear extract with NF-κB consensus sequence; assay type: cell-based, human; conditions: HKC cells, 4 h
MCP-1 and RANTES [4] = assay: Chemokine expression in immortalized rat proximal tubular cells (IRPTC); assay type: cell-based
NFkB p65 = assay: TNF-a induced NFkB p65 phosphorylation in HKC cells (immunoblot); assay type: cell-based, human
Procedure: as §1, §2

PI3K-Akt = PI3K-Akt activation in HKC / TEC; assay type: cell-based, human
NF-kB and IkB = NF-kB and IkB phosphorylation and IkB degradation in endothelial cells; assay type: cell-based
Procedure: In certain embodiments, NF-kB p65 phosphorylation is assessed as follows. Cell lysates with equal amounts of total protein are immunoblotted for phosphorylated NF-kB p65 or total p65. Anti-phosphorylated NF-kB p65 antibody is commercially available, e.g., from Cell Signaling, MA. Densitometric results of phosphorylated NF-kB p65 and total p65 bands as well as the ratio of pp65/p65 are compared between different transfections at different time points.
In certain embodiments, IkB phosphorylation and degradation is evaluated as follows. Cell lysates with equal amounts of total protein are immunoblotted for phosphorylated IkBa (anti-phosphorylated IkBa antibody is available from Cell Signaling. MA) or total IkBa. Densitometric results of phosphorylated IkBa and total IkBa bands are compared across the different treatments and time points.

E-selectin = assay: TNF-α induced E-selectin expression in HUVEC; assay type: cell-based, human
endothelial E-selectin = assay: Acute inflammation induced by bolus injection of TNF-α in vivo; conditions: infusion of exogenous HGF
GSK3b and NFkB p65 [5] = target: T2, GSK3b and NFkB p65 (Homo sapiens, UniProt P49841); assay: Co-immunoprecipitation of GSK3b and NFkB p65 in HKC cells; assay type: cell-based
T2 construct: whole cell lysates were subjected to immunoprecipitation by anti-GSK3b or anti-p65 antibody; endogenous in cells; host or cells: HKC-8
T2 sequence (P49841 whole entry): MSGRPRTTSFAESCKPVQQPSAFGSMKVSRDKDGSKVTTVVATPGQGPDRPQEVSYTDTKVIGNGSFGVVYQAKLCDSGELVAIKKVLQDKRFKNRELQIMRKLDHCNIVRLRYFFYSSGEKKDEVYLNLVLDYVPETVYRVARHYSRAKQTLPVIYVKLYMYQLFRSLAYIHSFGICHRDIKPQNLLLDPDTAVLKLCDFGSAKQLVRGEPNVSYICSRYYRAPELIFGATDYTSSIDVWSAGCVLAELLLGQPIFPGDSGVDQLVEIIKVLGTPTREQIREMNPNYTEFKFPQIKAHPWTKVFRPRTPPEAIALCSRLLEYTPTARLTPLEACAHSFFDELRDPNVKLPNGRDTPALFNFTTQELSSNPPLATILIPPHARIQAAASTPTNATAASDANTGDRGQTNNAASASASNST
Procedure: (§3) Immunoprecipitation was carried out by using an established method as described previously. Briefly, cells were washed with ice cold PBS and then lysed with RIPA buffer. After preclearing with normal IgG, cell lysates with equal amount of total protein (0.5 mg of protein) were incubated overnight at 4° C. with 4 μg specific agarose-conjugated antibodies. The precipitated complexes were collected, washed, and separated on SDS-polyacrylamide gels and blotted with various antibodies as indicated.

GSK3b and NFkB p65 [6] = target: T3, GSK3b and NFkB p65 (Homo sapiens, UniProt P49841, S9A); assay: as above; assay type: cell-based; conditions: HKC cells expressing S9A, TNF-a stimulation
T3 construct: endogenous in cells; host or cells: HKC-8
T3 sequence (P49841 whole entry S9A): as the sequence (P49841 whole entry) above, with S9A counted along it
Procedure: as §3

MCP-1 and RANTES [7] = assay: TNF-α induced chemokine (MCP-1, RANTES) expression in HKC cells; assay type: cell-based, human
Procedure: In certain embodiments, Enzyme-linked Immunosorbent assay (ELISA) is used to evaluate GSK3b proten level. For example, rat kidneys were homogenized in RIPA [1% Nonidet P-40, 0.1% SDS, 100ug/ml phenylmethysulfonyl fluoride (PMSF), 0.5% sodium deoxycholate, 1 mM sodium orthovanadate, 2 ug/ml aprotin, 2 ug/ml leupeptin, 5 mM EDTA in PBS] buffer. Chemokine levels in homogenates of equal amounts of total protein were measured using specific sandwich enzyme immunometric assay kits for rat. Chemokines in conditioned media from HKC were determined by specific sandwich ELISA kits for human (R&D Systems) according to the manufacturer's instructions. Results were normalized for protein amounts in kidney homogenates, or for cell number in cultures.
as §1

[8] = tested on: NF-κB p65 binding to E-selectin promoter; assay: DNA affinity precipitation and ChIP of NF-κB p65 at the E-selectin promoter in HUVEC; assay type: cell-based, human; conditions: 4 h after treatment
Procedure: To explore the role of GSK3b in HGF suppression of inflammation, we examined the effect of HGF on NF-κB activation in endothelial cells (FIG. 8A˜C) and TEC (FIG. 8D). […] (FIG. 8A). To determine whether HGF modulation of NF-κB transcriptional activity alters target gene (E-selectin) levels, DNA affinity precipitation assay was carried out at 4 h after treatment. Proteins in cell lysates were pulled down by biotin labeled oligonucleotides with the sequence of the E-selectin promoter region spanning the κB elements. […] To further examine the effect of HGF on NF-κB binding to the E-selectin gene in vivo, chromatin immunoprecipitation (ChIP) was applied at 4 h after treatments (FIG. 8C).

T1 sequence (P49841 whole entry): as the sequence (P49841 whole entry) above

HGF: Human recombinant HGF (R&D systems); induces inhibitory phosphorylation of GSK3b
inhibitory phosphorylation of GSK3b at serine 9 (GSK3b [1]): inhibited its downstream transducer, GSK-3b, by phosphorylation at serine-9; also recorded: inactivates GSK3b by inhibitory phosphorylation at ser-9; also recorded: induces inhibitory phosphorylation of GSK3b | PI3K-Akt activation [2]: activated phosphatidylinositol 3-kinase (PI3K)-Akt | inhibitory phosphorylation of GSK3b (S9) (GSK3b [3]): inhibited GSK3, by phosphorylation at Ser-9; also recorded: induce GSK3b phosphorylation at Ser9; also recorded: induces inhibitory phosphorylation of GSK3b at S9 | monocytic adhesion to endothelial cells (endothelial cells): abrogated monocyte adhesion to TNF-α-activated endothelial monolayers; also recorded: inhibited E-selectin mediated monocytic adhesion to endothelial cells | TNF-α induced binding of nuclear extract to NF-κB consensus oligonucleotides (NF-κB): markedly blunted by HGF; also recorded: attenuated by HGF | basal and TNF-α induced expression of MCP-1 and RANTES (MCP-1 and RANTES [4]): suppressed basal and TNF-α induced expression of MCP-1 and RANTES | TNF-a induced p65 phosphorylation at other sites (S276, S536) (NFkB p65; HKC cells): had minimal effect on S276 | HGF inhibition of TNF-a-induced phosphorylation of p65 at S468 (NFkB p65; HKC cells expressing GSK3b S9A): strikingly abolished in cells expressing S9A; also recorded: obliterated in HKC cells expressing GSK3b S9A | TNF-a induced p65 phosphorylation at S468 (NFkB p65; HKC cells, TNF-a 2 ng/ml, VPA 1 mM, 10 uM for 60 minutes): markedly abolished TNF-a induced phosphorylation of S468 in a time dependent fashion; also recorded: suppresses NFkB phosphorylation specifically at S468 | PI3K-Akt activation (PI3K-Akt): elicited PI3K-Akt activation; also recorded: activates PI3K-Akt in TEC | NF-kB and IkB phosphorylation and IkB degradation (NF-kB and IkB): inhibition of NF-kB and IkB phosphorylation and IkB degradation | HGF inhibition of TNF-a induced E-selectin expression (E-selectin; HUVEC expressing uninhibitable mutant S9A-GSK3b): abolished HGF suppression of E-selectin; also recorded: abolished the suppressive action of HGF; also recorded: abolishes HGF inhibition of endothelial E-selectin | HGF inhibition of TNF-a induced E-selectin expression (E-selectin; HUVEC transfected with pcDNA3 or HA-WT-GSK3b): HGF inhibition of E-selectin expression was evident | TNF-α induced E-selectin expression (E-selectin; HUVEC, lithium 20 mM, HGF 100 ng/ml, TNF-a 0.5 ng/ml): suppressed endothelial expression of E-selectin; also recorded: suppressed TNF-α-induced expression of E-selectin; also recorded: attenuates TNF-α elicited E-selectin expression; also recorded: attenuates TNF-a (0.5 ng/ml) elicited E-selectin expression | endothelial expression of E-selectin (endothelial E-selectin): reduced endothelial expression of E-selectin induced by bolus injection of TNF-α | sequestration of circulating macrophages in the kidney (endothelial E-selectin): less sequestration of circulating macrophages in the kidney | TNF-a induced co-precipitation of phosphorylated p65 (Ser468) with GSK3b (GSK3b and NFkB p65 [5]; HKC cells, immunoprecipitation by anti-GSK3b): abrogated TNFa induced co-precipitation | TNF-a induced GSK3b to p65 interaction (GSK3b and NFkB p65 [5]; HKC cells, immunoprecipitation by anti-p65): remarkably overridden by HGF; also recorded: suppressive effect on physical interaction between GSK3b and RelA/p65 | co-precipitation of HA-tagged GSK3b with p65 / phosphorylated p65(S468) (GSK3b and NFkB p65 [5]; WT transfected HKC cells, TNF-a stimulation): markedly reduced HA co-precipitation with p65 in the WT transfected cells; also recorded: significantly attenuated by HGF in WT transfected cells | co-precipitation of HA-tagged GSK3b with p65 / phosphorylated p65(S468) (GSK3b and NFkB p65 [6]): considerably abrogated in HKC cells expressing S9A; also recorded: substantially blunted in cells expressing S9A; also recorded: overridden in cells expression the mutant uninhibitable GSK3b | HGF inhibition of chemokine (RANTES, MCP-1) expression (MCP-1 and RANTES [7]; HKC cells expressing uninhibitable mutant S9A-GSK3b): abolished HGF inhibition of basal and TNF-α stimulated RANTES expression; also recorded: abolished HGF suppression of E-selectin; also recorded: abolishes HGF's inhibitory effect | HGF inhibition of chemokine (RANTES, MCP-1) expression (MCP-1 and RANTES [7]; HKC cells transfected with pcDNA3 or WT-GSK3b): did not alter the inhibitory action of HGF on RANTES; also recorded: HGF inhibition of chemokine expression was evident | basal and TNF-α induced chemokine (RANTES, MCP-1) expression (MCP-1 and RANTES [7]; HKC cells, lithium 20 mM, HGF 20 ng/ml, TNF-a 2 ng/ml): suppresses basal and TNF-α-induced expression of RANTES in a time and dose dependent fashion; also recorded: suppressed MCP-1 and RANTES in a time and dose dependent manner; also recorded: blocked this induction; also recorded: attenuates TNF-α elicited chemokine expression; also recorded: attenuates TNF-a (2 ng/ml) elicited chemokine expression | TNF-α induced NF-κB binding to E-selectin promoter / gene [8]: counteracted NF-kB interaction with kB elements at the E-selectin gene level; also recorded: significantly blunted TNF-α induced NF-κB binding to E-selectin promoter sequence; also recorded: prevents NF-κB mediated transcription of E-selectin; also recorded: blunts NF-kB activation and its target E-selectin gene
